From patent US4877881A, “Process of preparing pyrazoles, isoxazoles and analogs thereof having activity as 5-lipoxygenase inhibitors” (Warner-Lambert Company, priority 1988, dated 1989)

Tests used:
5-lipoxygenase = target: T1, 5-lipoxygenase (Rattus norvegicus, UniProt P12527); assay: ARBL Whole Cell 5-Lipoxygenase Assay in RBL-1 cells (LTB4 RIA); format: cell-based; conditions: RBL-1 intact cell 5-lipoxygenase; A23187 5 μM
T1 construct: ARBL/ARBC Whole Cell 5-Lipoxygenase and Cyclooxygenase Assays; endogenous in cells; host or cells: RBL-1 rat basophilic leukemia cells (American Type Culture Collection)
T1 sequence (P12527 1-673): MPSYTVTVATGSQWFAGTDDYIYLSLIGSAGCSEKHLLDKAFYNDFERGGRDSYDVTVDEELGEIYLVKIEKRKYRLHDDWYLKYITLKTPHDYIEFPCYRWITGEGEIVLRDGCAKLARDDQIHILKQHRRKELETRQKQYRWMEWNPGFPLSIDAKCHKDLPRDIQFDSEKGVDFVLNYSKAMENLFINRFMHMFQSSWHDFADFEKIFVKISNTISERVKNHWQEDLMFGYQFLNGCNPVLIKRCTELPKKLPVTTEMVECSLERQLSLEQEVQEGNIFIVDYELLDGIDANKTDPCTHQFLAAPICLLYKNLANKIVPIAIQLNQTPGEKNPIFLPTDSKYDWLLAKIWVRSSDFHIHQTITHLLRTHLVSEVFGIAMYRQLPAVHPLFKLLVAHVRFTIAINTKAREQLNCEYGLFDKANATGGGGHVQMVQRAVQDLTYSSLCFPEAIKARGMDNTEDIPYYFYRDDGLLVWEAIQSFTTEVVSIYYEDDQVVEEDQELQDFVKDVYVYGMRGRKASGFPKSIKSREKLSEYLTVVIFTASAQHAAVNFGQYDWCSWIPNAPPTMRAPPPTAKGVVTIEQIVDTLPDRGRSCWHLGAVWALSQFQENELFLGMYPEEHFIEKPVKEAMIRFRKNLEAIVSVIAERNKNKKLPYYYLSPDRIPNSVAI
Method: (§1) ARBL/ARBC Whole Cell 5-Lipoxygenase and Cyclooxygenase Assays
(§2) The rat basophilic leukemia cell line (RBL-1) was obtained from the American Type Culture Collection (Rockville, Md.).
(§3) Radioimmuno assay (RIA) kits of LTB4 and PGF2α were obtained from Amersham (Arlington Heights, Ill.) and Seragen (Boston, Mass.) respectively.
(§4) All tissue culture media were obtained from GIBO (Gran Island, N.Y.).
(§5) RBL-1 cells were grown in culture (suspension) in Eagle's minimum essential medium supplemented with 12% fetal bovine serum and 1:100 antibiotic-antimycotic mixture at 37° C. in an incubator supplied with air-5% carbon dioxide. Cells were harvested by centrifugation. They were washed with cold phosphate buffered saline pH 7.4 (PBS; NaCl, 7.1 g; Na2 HOP4, 1.15 g; KH2 PO4, 0.2 g; and KCl, 0.2 g/L). […] Calcium ionophore A23187 (5 μM) was added and cells were incubated for seven minutes at 37° C. The reaction was stopped by chilling the tubes in ice for ten minutes. Cells were separated by centrifugation and the supernatant was stored at -20°. Aliquots (100 μl) were analyzed for LTB4 and PGF2α using radioimmuno assay kits as provided by the supplier.

cyclooxygenase = target: T2, cyclooxygenase (Rattus norvegicus, UniProt Q63921); assay: ARBC Whole Cell Cyclooxygenase Assay in RBL-1 cells (PGF2α RIA); format: cell-based; conditions: RBL-1 intact cell cyclooxygenase; A23187 5 μM
T2 construct: RBL-1 intact cell cyclooxygenase IC50 values; endogenous in cells; host or cells: RBL-1 rat basophilic leukemia cells (American Type Culture Collection)
T2 sequence (Q63921 27-602): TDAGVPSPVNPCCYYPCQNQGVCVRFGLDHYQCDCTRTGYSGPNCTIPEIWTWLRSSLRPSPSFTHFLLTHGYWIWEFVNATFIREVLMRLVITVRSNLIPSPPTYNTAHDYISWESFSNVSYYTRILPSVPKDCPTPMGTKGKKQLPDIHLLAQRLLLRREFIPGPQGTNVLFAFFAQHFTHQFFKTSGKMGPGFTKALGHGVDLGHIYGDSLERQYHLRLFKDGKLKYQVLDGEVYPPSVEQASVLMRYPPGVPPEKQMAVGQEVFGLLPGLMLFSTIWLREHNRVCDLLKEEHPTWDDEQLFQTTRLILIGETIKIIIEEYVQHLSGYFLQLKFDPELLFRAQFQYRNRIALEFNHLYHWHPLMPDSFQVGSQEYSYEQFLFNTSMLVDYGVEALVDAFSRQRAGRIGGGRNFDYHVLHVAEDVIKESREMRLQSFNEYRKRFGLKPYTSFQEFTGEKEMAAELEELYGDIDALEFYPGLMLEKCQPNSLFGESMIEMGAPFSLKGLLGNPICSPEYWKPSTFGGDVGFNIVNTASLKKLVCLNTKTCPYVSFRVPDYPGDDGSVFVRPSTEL
Method: as §1, §2, §3, §4, §5

Structure (SMILES) | IC50 (5-lipoxygenase) [µM] | IC50 (cyclooxygenase) [µM]
CCOC(=O)Cn1nc(C)cc1/C=C/c1cc(OC)c(O)c(OC)c1 [Example 10D, (E)-5-[β-(4'-Hydroxy-3',5'-dimethoxyphenyl)ethenyl]3-methyl-1H-pyrazole-1-acetic acid, ethyl ester] | 0.3 | > 30
COC(=O)Cn1nc(C=Cc2cc(OC)c(O)c(OC)c2)cc1C [Example 10H, 3-[β-(4'-Hydroxy-3',5'-dimethoxyphenyl)ethenyl]-5-methyl-1H-pyrazole-1-acetic acid, methyl ester] | 9.5 | > 30
Cc1cc(C=Cc2cc(C(C)(C)C)c(O)c(C(C)(C)C)c2)nn1CC(=O)O [Example 10Q, 3-[β-(4'-Hydroxy-3',5'-di-t-butylphenyl)ethenyl]-5-methyl-1H-pyrazole-1-acetic acid] | > 30 | > 30
COc1cc(C=Cc2cc(C(F)(F)F)[nH]n2)ccc1O [Example 10A, 3-[β-(4'-Hydroxy-3'-methoxyphenyl)ethenyl]-5-trifluoromethylpyrazole] | 3.8 | 4.5
COC(=O)Cn1nc(C=Cc2ccc(O)c(OC)c2)cc1C [Example 10J, 3-[β-(4'-Hydroxy-3'-methoxyphenyl)ethenyl]-5-methyl-1H-pyrazole-1-acetic acid, methyl ester] | > 10 | 30
COc1cc(C=Cc2cc(C)nn2CC(=O)O)cc(OC)c1O [Example 10M, 5-[β-(4'-Hydroxy-3',5'-dimethoxyphenyl)ethenyl]-3-methyl-1H-pyrazole-1-acetic acid] | > 30 | > 30
COc1cc(C=Cc2cc(C)n(CC(=O)O)n2)ccc1O [Example 10K, 3-[β-(4'-Hydroxy-3'-methoxyphenyl)ethenyl]-5-methyl-1H-pyrazole-1-acetic acid] | > 20 | 
COC(=O)Cn1nc(C=Cc2cc(C(C)(C)C)c(O)c(C(C)(C)C)c2)cc1C [Example 10G-1, 3-[β-(4'-Hydroxy-3',5'-di-t-butylphenyl)ethenyl]-5-methyl-1H-pyrazole-1-acetic acid, methyl ester] | 4.5 | > 30
COC(=O)Cn1nc(C)cc1C=Cc1ccc(O)c(OC)c1 [Example 10I, 5-[β-(4'-Hydroxy-3'-methoxyphenyl)ethenyl]-3-methyl-1H-pyrazole-1-acetic acid methyl ester] | > 10 | > 25
COc1cc(C=Cc2cc(C)n(CC(=O)O)n2)cc(OC)c1O [Example 10N, 3-[β-(4'-hydroxy-3',5'-dimethoxyphenyl)ethenyl]-5-methyl-1H-pyrazole-1-acetic acid] | > 20 | > 30
COC(=O)Cn1nc(C)cc1C=Cc1cc(C(C)(C)C)c(O)c(C(C)(C)C)c1 [Example 10G-2, 5-[β-(4'-hydroxy-3',5'-di-t-butylphenyl)ethenyl]-3-methyl-1H-pyrazole-1-acetic acid, methyl ester] | 4.1 | > 30
COc1cc(C=Cc2cc(C)[nH]n2)ccc1OC(C)=O [Example 37, 3-[β-(4'-Acetoxy-3'-methoxyphenyl)ethenyl]-5-methylpyrazole] | 3.5 | 
Cc1cc(C=Cc2cc(C(C)(C)C)c(O)c(C(C)(C)C)c2)n(CC(=O)O)n1 [Example 10P, 5-[β-(4'-Hydroxy-3',5'-di-t-butylphenyl)ethenyl]-3-methyl-1H-pyrazole-1-acetic acid] | 12 | > 30
COc1cc(C=Cc2cc(C)nn2CC(=O)O)ccc1O [Example 10L, 5-[β-(4'-Hydroxy-3'-methoxyphenyl)ethenyl]-3-methyl-1H-pyrazole-1-acetic acid] | > 20 | 

Further lines, results first:

IC50 (5-lipoxygenase) [µM] | IC50 (cyclooxygenase) [µM] | Structure (SMILES)
> 10 | > 25 | COC(=O)C(=Cc1cc(OC)c(O)c(OC)c1)c1cc(C)no1 [Example 40, 5-[β-Carbomethoxy-β-(4'-hydroxy-3',5'-dimethoxyphenyl)ethenyl]-3-methylisoxazole]
4.7 | > 30 | Cc1cc(C=Cc2cc(Cl)cc(Cl)c2O)on1 [Example 32J, 5-[β-(2'-Hydroxy-3',5'-dichlorophenyl)ethenyl]-3-methylisoxazole]
4.5 | 2.8 | COc1cc(C=Cc2cc(-c3ccccc3)no2)ccc1O [Example 32E, 5-[β-(4'-Hydroxy-3'-methoxyphenyl)ethenyl]-3-phenyl-isoxazole]
> 30 | 5 | COC(=O)C(=Cc1cc(Cl)c(O)c(Cl)c1)c1cc(C)no1 [Example 41, 5-[α-Carbomethoxy-β-(4'-hydroxy-3,5-dichlorophenyl)ethenyl]-3-methylisoxazole]
12 | 5.2 | COC(=O)C(=Cc1cc(Br)c(O)c(Br)c1)c1cc(C)no1 [Example 44, 5-[α-Carbomethoxy-β-(4'-hydroxy-3',5'-dibromophenyl)ethenyl]-3-methylisoxazole]
21.5 |  | COc1cc(C=Cc2cc(CCO)on2)ccc1O [Example 36A, 3-[β-(4'-Hydroxy-3'-methoxyphenyl)ethenyl]-5-(2'-hydroxyethyl)isoxazole]
> 20 | > 20 | Cc1cc(C(=Cc2cc(C)c(O)c(C)c2)C(=O)O)on1 [Example 52, 5-[α-Carboxy-β-(4'-hydroxy-3',5'-dimethylphenyl)ethenyl]-3-methylisoxazole]
20 | 2.5 | Cc1cc(C(=Cc2cc(C(C)(C)C)c(O)c(C(C)(C)C)c2)C(=O)O)on1 [Example 51, 5-[α-Carboxy-β-(4'-hydroxy-3',5'-bis(1,1-dimethylethyl)phenyl)ethenyl]-3-methylisoxazole]
> 30 | 12 | COC(=O)C(=Cc1cc(Br)c(O)c(OC)c1)c1cc(C)no1 [Example 46A, 5-[α-Carbomethoxy-β-(3'-methoxy-4'-hydroxy-5'-bromophenyl)ethenyl]-3-methylisoxazole]
17 | 2.2 | COC(=O)C(=Cc1cc(C)c(O)c(C)c1)c1cc(C)no1 [Example 43, 5-[α-Carbomethoxy-β-(4'-hydroxy-3',5'-dimethylphenyl)ethenyl]-3-methylisoxazole]
12 | 30 | COc1cccc(C=Cc2cc(C)no2)c1O [Example 32F, 5-[β-(2'-Hydroxy-3'-methoxyphenyl)ethenyl]-3-methylisoxazole]
< 1 | 5.4 | COc1cc(C=Cc2cc(-c3ccccc3)no2)cc(OC)c1O [Example 32D, 5-[β(4'-Hydroxy-3',5'-dimethoxyphenyl)ethenyl]-3-phenylisoxazole]
